Results reported in patent US10988523B2, “Modified lipidated Relaxin B chain peptides and their therapeutic use” (Sanofi, priority 2018, dated 2021).
*1 amine or outer side, *2 acyl side, *3 side chain or, on linkers, in order; H or OH if unused. Where a SMILES comes first, the peptide text is derived from it. Side-chain parts run from the residue outwards. [ ]: non-standard residue; d: D form. The star is where a group is joined. γGlu = O=C(O)[C@H](CCC(=O)[*:2])N[*:1]; Stearoyl = CCCCCCCCCCCCCCCCCC(=O)*; αMeK = C[C@](N)(CCCCN)C(=O)O; Nle = CCCC[C@H](N)C(=O)O; AEEA = NCCOCCOCC(=O)O; Aib = CC(C)(N)C(=O)O

Assays:
RXFP1 = target: T1, RXFP1 (Homo sapiens, UniProt Q9HBX9); test: OVCAR5 cAMP assay (HTRF), RXFP1 agonist activity; type: cell-based; settings: for EC50: OVCAR5 cells, cAMP HTRF, read-out: EC50 (nM), OVCAR 5 cells (cAMP); for Emax: OVCAR-5, maximal cAMP relative to H2-relaxin maximum (100%), read-out: EMax, OVCAR 5 cells (cAMP)
T1 construct: OVCAR5 cells expressing endogenous RXFP1; endogenous in cells; host or cells: OVCAR5 cells
T1 sequence (Q9HBX9 1-757): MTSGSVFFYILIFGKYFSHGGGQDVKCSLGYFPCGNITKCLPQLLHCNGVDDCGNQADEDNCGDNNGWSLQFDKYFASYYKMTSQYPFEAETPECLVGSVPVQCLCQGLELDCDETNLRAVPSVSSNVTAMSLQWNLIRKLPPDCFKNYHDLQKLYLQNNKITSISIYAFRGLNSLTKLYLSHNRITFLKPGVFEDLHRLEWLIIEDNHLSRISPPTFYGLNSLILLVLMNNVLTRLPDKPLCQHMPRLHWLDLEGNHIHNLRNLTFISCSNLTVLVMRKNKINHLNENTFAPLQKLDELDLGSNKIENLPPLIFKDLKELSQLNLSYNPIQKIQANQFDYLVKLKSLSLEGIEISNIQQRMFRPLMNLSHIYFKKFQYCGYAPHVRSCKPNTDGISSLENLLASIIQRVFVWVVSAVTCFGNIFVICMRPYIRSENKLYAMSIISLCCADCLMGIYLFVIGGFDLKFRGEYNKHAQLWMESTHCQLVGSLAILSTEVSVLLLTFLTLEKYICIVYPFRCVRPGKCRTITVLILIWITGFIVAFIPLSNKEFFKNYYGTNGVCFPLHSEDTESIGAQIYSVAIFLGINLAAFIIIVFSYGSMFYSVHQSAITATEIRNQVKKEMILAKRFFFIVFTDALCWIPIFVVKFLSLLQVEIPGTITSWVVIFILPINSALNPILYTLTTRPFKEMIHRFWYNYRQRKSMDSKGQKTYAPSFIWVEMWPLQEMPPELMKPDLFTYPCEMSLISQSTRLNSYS
Method in brief: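 OVCAR5 cells (endogenous RXFP1) pretreated 40 min at 37° C with 1 mM IBMX, then exposed to peptides in serum-free medium for 30 min at 37° C. Lysate cAMP read by HTRF; EC50 from variable-slope sigmoidal fit; Emax as % of H2-relaxin maximal cAMP in same run.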

[1] = Pharmacokinetic (PK) determination after i.v. or s.c. administration to rats; type: in vivo, Sprague Dawley rats; settings: Sprague Dawley, Rat PK; for C0 / half-life: iv, 1 mg/kg i.v.; for C0: extrapolated plasma concentration at t=0, read-out: C0; for half-life / Cmax / Tmax / bioavailability: plasma; for half-life: read-out: T½ (converted); for Cmax / Tmax: sc, 3 mg/kg s.c.; for bioavailability: subcutaneous, 3 mg/kg s.c. vs 1 mg/kg i.v., dose-corrected AUC ratio
Method in brief: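 Sprague Dawley rats received peptide in PBS at 1 mg/kg i.v. or 3 mg/kg s.c., dose corrected for salts, solvent and purity. Plasma analysed by LC/MS after protein precipitation; non-compartmental PK, BLQ values set to zero, F% as dose-corrected s.c./i.v. AUC ratio.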

Row | SMILES | EC50 (RXFP1) [nM] | Emax (RXFP1) [%] | C0 [1] [nM] | half-life [1] [h] | Cmax [1] [nM] | Tmax [1] [h] | bioavailability [1] [%]
1 | CCCCCCCCCCCCCCCCCC(=O)N[C@@H](CCC(=O)N[C@@H](CCC(=O)N[C@@H](CCC(=O)NCCOCCOCC(=O)NCCOCCOCC(=O)NCCOCCOCC(=O)NCCCC[C@H](NC(=O)[C@H](CCCCN)NC(=O)[C@H](CCCNC(=N)N)NC(=O)C(C)(C)NC(=O)[C@H](CO)NC(=O)[C@H](Cc1c[nH]c2ccccc12)NC(=O)[C@@H](NC(=O)[C@H](CO)NC(=O)[C@H](CCCC)NC(=O)CNC(=O)[C@H](CCC(=O)O)NC(=O)C(C)(C)NC(=O)C(C)(C)NC(=O)[C@@H](NC(=O)[C@H](CCC(N)=O)NC(=O)[C@H](C)NC(=O)[C@H](CCCNC(=N)N)NC(=O)[C@@H](NC(=O)[C@H](CCCCN)NC(=O)[C@H](CCC(=O)O)NC(=O)[C@H](CCCNC(=N)N)NC(=O)CNC(=O)[C@H](CCC(=O)O)NC(=O)[C@H](CC(C)C)NC(C)=O)C(C)C)[C@@H](C)CC)[C@@H](C)O)C(N)=O)C(=O)O)C(=O)O)C(=O)O [compound 74] (Ac-LEGREKVRAQI[Aib][Aib]EG[Nle]STWS[Aib]RKK([AEEA-AEEA-AEEA-γGlu-γGlu-γGlu-Stearoyl])-NH2) | 0.07 | 85 | 3000 | 3.89 | 1630 | 7 | 70
2 | CCCCCCCCCCCCCCCCCC(=O)N[C@@H](CCC(=O)N[C@@H](CCC(=O)N[C@@H](CCC(=O)N[C@@H](CCC(=O)NCCOCCOCC(=O)NCCOCCOCC(=O)NCCOCCOCC(=O)NCCCC[C@H](NC(=O)[C@H](CCCCNC(C)=O)NC(=O)[C@H](CCCCN)NC(=O)[C@H](CCCNC(=N)N)NC(=O)[C@](C)(CCCCN)NC(=O)[C@H](CO)NC(=O)[C@H](Cc1c[nH]c2ccccc12)NC(=O)[C@@H](NC(=O)[C@H](CO)NC(=O)[C@H](CCCC)NC(=O)CNC(=O)[C@H](CCC(=O)O)NC(=O)C(C)(C)NC(=O)C(C)(C)NC(=O)[C@@H](NC(=O)[C@H](CCCCNC(C)=O)NC(=O)[C@H](C)NC(=O)[C@H](CCCNC(=N)N)NC(=O)[C@@H](NC(=O)[C@H](CCCCN)NC(=O)[C@H](CCC(=O)O)NC(=O)[C@H](CCCNC(=N)N)NC(=O)CNC(=O)[C@H](CCC(=O)O)NC(=O)[C@H](CC(C)C)NC(C)=O)C(C)C)[C@@H](C)CC)[C@@H](C)O)C(N)=O)C(=O)O)C(=O)O)C(=O)O)C(=O)O [compound 82] (Ac-LEGREKVRAK(Ac)I[Aib][Aib]EG[Nle]STWS[αMeK]RKK(Ac)K([AEEA-AEEA-AEEA-γGlu-γGlu-γGlu-γGlu-Stearoyl])-NH2) | 0.02 | 89 | 2600 | 3.4 | 1200 | 7 | 114
3 | CCCCCCCCCCCCCCCCCC(=O)N[C@@H](CCC(=O)N[C@@H](CCC(=O)N[C@@H](CCC(=O)N[C@@H](CCC(=O)NCCOCCOCC(=O)NCCOCCOCC(=O)NCCOCCOCC(=O)NCCOCCOCC(=O)NCCCC[C@H](NC(=O)[C@H](CCCCN)NC(=O)[C@H](CCCCN)NC(=O)[C@H](CCCNC(=N)N)NC(=O)C(C)(C)NC(=O)[C@H](CO)NC(=O)[C@H](Cc1c[nH]c2ccccc12)NC(=O)[C@@H](NC(=O)[C@H](CO)NC(=O)[C@H](CCCC)NC(=O)CNC(=O)[C@H](CCC(=O)O)NC(=O)C(C)(C)NC(=O)C(C)(C)NC(=O)[C@@H](NC(=O)[C@H](CCCCNC(C)=O)NC(=O)[C@H](C)NC(=O)[C@H](CCCNC(=N)N)NC(=O)[C@@H](NC(=O)[C@H](CCCCN)NC(=O)[C@H](CCC(=O)O)NC(=O)[C@H](CCCNC(=N)N)NC(=O)CNC(=O)[C@H](CCC(=O)O)NC(=O)[C@H](CC(C)C)NC(C)=O)C(C)C)[C@@H](C)CC)[C@@H](C)O)C(N)=O)C(=O)O)C(=O)O)C(=O)O)C(=O)O [compound 91] (Ac-LEGREKVRAK(Ac)I[Aib][Aib]EG[Nle]STWS[Aib]RKKK([AEEA-AEEA-AEEA-AEEA-γGlu-γGlu-γGlu-γGlu-Stearoyl])-NH2) | – | 88 | 2900 | 3 | 1300 | 7 | 89
4 | CCCCCCCCCCCCCCCCCC(=O)N[C@@H](CCC(=O)NCCOCCOCC(=O)N[C@@H](CCC(=O)N[C@@H](CCC(=O)NCCOCCOCC(=O)NCCOCCOCC(=O)NCCCC[C@H](NC(=O)[C@H](CCCCN)NC(=O)[C@H](CCCNC(=N)N)NC(=O)C(C)(C)NC(=O)[C@H](CO)NC(=O)[C@H](Cc1c[nH]c2ccccc12)NC(=O)[C@@H](NC(=O)[C@H](CO)NC(=O)[C@H](CCCC)NC(=O)CNC(=O)[C@H](CCC(=O)O)NC(=O)C(C)(C)NC(=O)C(C)(C)NC(=O)[C@@H](NC(=O)[C@H](CCC(N)=O)NC(=O)[C@H](C)NC(=O)[C@H](CCCNC(=N)N)NC(=O)[C@@H](NC(=O)[C@H](CCCCN)NC(=O)[C@H](CCC(=O)O)NC(=O)[C@H](CCCNC(=N)N)NC(=O)CNC(=O)[C@H](CCC(=O)O)NC(=O)[C@H](CC(C)C)NC(C)=O)C(C)C)[C@@H](C)CC)[C@@H](C)O)C(N)=O)C(=O)O)C(=O)O)C(=O)O [compound 100] (Ac-LEGREKVRAQI[Aib][Aib]EG[Nle]STWS[Aib]RKK([AEEA-AEEA-γGlu-γGlu-AEEA-γGlu-Stearoyl])-NH2) | 0.16 | 90 | 3100 | 2.8 | 2360 | 7 | 41
5 | CCCCCCCCCCCCCCCCCC(=O)N[C@@H](CCC(=O)NCCOCCOCC(=O)N[C@@H](CCC(=O)N[C@@H](CCC(=O)NCCOCCOCC(=O)NCCOCCOCC(=O)NCCCC[C@H](NC(=O)[C@H](CCCCNC(C)=O)NC(=O)[C@H](CCCCN)NC(=O)[C@H](CCCNC(=N)N)NC(=O)C(C)(C)NC(=O)[C@H](CO)NC(=O)[C@H](Cc1c[nH]c2ccccc12)NC(=O)[C@@H](NC(=O)[C@H](CO)NC(=O)[C@H](CCCC)NC(=O)CNC(=O)[C@H](CCC(=O)O)NC(=O)C(C)(C)NC(=O)C(C)(C)NC(=O)[C@@H](NC(=O)[C@H](CCCCNC(C)=O)NC(=O)[C@H](C)NC(=O)[C@H](CCCNC(=N)N)NC(=O)[C@@H](NC(=O)[C@H](CCCCN)NC(=O)[C@H](CCC(=O)O)NC(=O)[C@H](CCCNC(=N)N)NC(=O)CNC(=O)[C@H](CCC(=O)O)NC(=O)[C@H](CC(C)C)NC(C)=O)C(C)C)[C@@H](C)CC)[C@@H](C)O)C(N)=O)C(=O)O)C(=O)O)C(=O)O [compound 101] (Ac-LEGREKVRAK(Ac)I[Aib][Aib]EG[Nle]STWS[Aib]RKK(Ac)K([AEEA-AEEA-γGlu-γGlu-AEEA-γGlu-Stearoyl])-NH2) | 0.16 | 86 | 1800 | 1.8 | 1000 | 7 | 39
6 | CCCCCCCCCCCCCCCCCC(=O)N[C@@H](CCC(=O)NCCOCCOCC(=O)N[C@@H](CCC(=O)N[C@@H](CCC(=O)N[C@@H](CCC(=O)NCCOCCOCC(=O)NCCOCCOCC(=O)NCCCC[C@H](NC(=O)[C@H](CCCCN)NC(=O)[C@H](CCCCN)NC(=O)[C@H](CCCNC(=N)N)NC(=O)C(C)(C)NC(=O)[C@H](CO)NC(=O)[C@H](Cc1c[nH]c2ccccc12)NC(=O)[C@@H](NC(=O)[C@H](CO)NC(=O)[C@H](CCCC)NC(=O)CNC(=O)[C@H](CCC(=O)O)NC(=O)C(C)(C)NC(=O)C(C)(C)NC(=O)[C@@H](NC(=O)[C@H](CCCCNC(C)=O)NC(=O)[C@H](C)NC(=O)[C@H](CCCNC(=N)N)NC(=O)[C@@H](NC(=O)[C@H](CCCCN)NC(=O)[C@H](CCC(=O)O)NC(=O)[C@H](CCCNC(=N)N)NC(=O)CNC(=O)[C@H](CCC(=O)O)NC(=O)[C@H](CC(C)C)NC(C)=O)C(C)C)[C@@H](C)CC)[C@@H](C)O)C(N)=O)C(=O)O)C(=O)O)C(=O)O)C(=O)O [compound 102] (Ac-LEGREKVRAK(Ac)I[Aib][Aib]EG[Nle]STWS[Aib]RKKK([AEEA-AEEA-γGlu-γGlu-γGlu-AEEA-γGlu-Stearoyl])-NH2) | 0.08 | 80 | 4250 | 1.16 | 1450 | 8 | 78
